Experimental data reported in PMC12461628, “Tolerogenic antigen-specific vaccine induces VISTA-enriched regulatory T cells and protects against arthritis in DRB1∗04:01 mice” (Molecular Therapy, 2025).

Experiment: IL-17A ELISpot, lymph node cells after DTH
Type: cell-based, mouse
Details: ConA 1 μg/mL, 48 h, 37°C
Experimental: For T cell recall assays, 1 × 10^6 lymph node cells per/well were plated in anti-IL17A (TC11-18H10.1, 5 μL, Mabtech)-coated plates (Merck Millipore, #MSIPS4W10), stimulated with denatured bCOL2 (30 μg/mL), and incubated for 48 h at 37°C. Positive controls consisted of lymph node cells stimulated with Concanavalin A (ConA; 1 μg/mL, Sigma), while negative controls comprised unstimulated cells in complete medium only. Bound IL-17A was detected with anti-IL17A (TC11-8H4, 1 μg/mL, Mabtech) followed by streptavidin-conjugated alkaline phosphatase. The spots were developed using the substrate BCIP/Nitroblue Tetrazolium (Sigma). Scanned wells (ImmunoScan) were analyzed with ImmunoSpot software (Cellular Technology).

Which “IL-17A ELISpot signal, positive control” value does the source give for Concanavalin A [ConA] here?
The value was “exceeds 600 SFC/10^6 cells”.
